{"source": "patent US20230172984A1", "about": "“CLEARANCE OF SENESCENT CELLS BY ACTIVATION OF iNKT CELLS” (THE REGENTS OF THE UNIVERSITY OF CALIFORNIA, priority 2020, published 2023)", "key": {"[1]": {"tested_on": "Cdkn2a^Ink4a, Ccl2, Serpine1 mRNA", "assay": "Bleomycin-induced lung injury model, qRT-PCR of senescence and SASP markers in CD45-depleted lung cells", "assay_type": "in vivo, mouse", "conditions": "bleomycin-injured mice, GalCer day 10, harvest day 14; FIG. 4B", "experimental": "MATERIALS AND METHODS. Mouse husbandry. All procedures involving mice were performed according to the IACUC standards following ethics approval by the animal committee at the University of California, San Francisco. Male C57BL6/J on chow or HFD fed mice. HFD mice were fed a high-fat diet (60% kcal from fat) from 6 weeks until 22 weeks of age. All experiments on HFD mice were performed at 22-24 weeks total age (16-18 weeks on HFD). Age-matched male C57BL6/J mice on standard rodent chow diet were used as controls. For the lung injury model, 10-week-old male C57BL/6J mice were used. The animals were divided into three groups: the control group, the injured group, and the α-GalCer treated group. The animals in the control group received vehicle only (i.p.) on day 10. The injured group animals received bleomycin (3 U/kg) via the intratracheal route at the start of the experiment (day 0). The animals in the α-GalCer treated groups received bleomycin (3 U/kg) on day 0, and i.p. injection of α-GalCer (2 μg/mouse) on day 10. […] RNA extraction and Quantitative reverse transcriptase PCR.RNA was extracted with RNA extraction reagent using the commercial total RNA micro-prep kit according to the product instructions. Total RNA was quantified by nanovolume photospectrometer and fluorometer. […] Quantification was performed using with the delta-delta CT method, using Cyclophilin A (Ppia) as a housekeeping gene."}, "[2]": {"tested_on": "lung parenchymal iNKT cells", "assay": "Bleomycin-induced lung injury model, flow cytometry of lung iNKT cells", "assay_type": "in vivo, mouse", "conditions": "bleomycin-injured mice, GalCer day 10, harvest day 14; FIG. 4C", "experimental": "MATERIALS AND METHODS. Mouse husbandry. All procedures involving mice were performed according to the IACUC standards following ethics approval by the animal committee at the University of California, San Francisco. Male C57BL6/J on chow or HFD fed mice. HFD mice were fed a high-fat diet (60% kcal from fat) from 6 weeks until 22 weeks of age. All experiments on HFD mice were performed at 22-24 weeks total age (16-18 weeks on HFD). Age-matched male C57BL6/J mice on standard rodent chow diet were used as controls. For the lung injury model, 10-week-old male C57BL/6J mice were used. The animals were divided into three groups: the control group, the injured group, and the α-GalCer treated group. The animals in the control group received vehicle only (i.p.) on day 10. The injured group animals received bleomycin (3 U/kg) via the intratracheal route at the start of the experiment (day 0). The animals in the α-GalCer treated groups received bleomycin (3 U/kg) on day 0, and i.p. injection of α-GalCer (2 μg/mouse) on day 10. […]\nFlow cytometry of iNKT cells. eWAT SVF cells were stained with PBS57 (α-GalCer-analog) loaded onto CD1d-PE tetramers prepared by the NIH Tetramer Core and anti-CD3-APC. […] For lung, 1×10^6 cells from each sample were used to quantify iNKT cells. […]"}, "[3]": {"conditions": "pre-clinical and clinical studies, Wolf et al., 2018; cited from earlier work"}}, "data": [{"compound": "CCCCCCCCCCCCCCCCCCCCCCCCCC(=O)N[C@@H](CO[C@H]1O[C@H](CO)[C@H](O)[C@H](O)[C@H]1O)[C@H](O)[C@H](O)CCCCCCCCCCCCCC", "note": "[GalCer, alpha-Galactosylceramide]", "values": [{"measurement": "mRNA levels of senescence (Cdkn2a^Ink4a) and SASP (Ccl2, Serpine1) markers in CD45^− lung cells", "setting": "[1]", "result": "reduced mRNA levels of these marker genes"}, {"measurement": "lung parenchymal iNKT cells (proportion of T cells)", "setting": "[2]", "result": "induced expansion of lung parenchymal iNKT cells"}, {"measurement": "tolerability / side effects", "setting": "[3]", "result": "generally been well-tolerated over a wide range of doses with minimal side effects"}]}]}
